Like-named read-outs stand apart in the source and are kept apart here.
Experiments:
Assay type in all cases: cell-based
human Edg-4 = target: T1, human Edg-4 (Homo sapiens, UniProt Q9HBW0); test: Ca2+ responses (Fura-2) in RH7777 cells expressing Edg-4 (stable or transient); settings: stable Edg-4; 500 nM LPA 18:1 mixed with 5 μM lipid
T1 construct: expressed in transfected cells
Text: RH7777 cells, stably expressing human Edg-4, were kindly provided by Dr. Kevin Lynch (University of Virginia, Charlottesville, Va.). Flag-tagged cDNA's encoding human Edg-4 and -7 inserted into the pCDNA3 expression plasmid (Invitrogen, Carlsbad, Calif.), were a generous gift from Dr. Junken Aoki (University of Tokyo, Tokyo, Japan). RH7777 and NIH3T3 cells were obtained from the American Type Culture Collection (Manassas, Va.). HEY cells were provided by Dr. Lisa Jennings (University of Tennessee, Memphis). All cell lines were maintained in Dulbecco's Modified Eagle's Medium (DMEM) containing 10% FBS and 2 mM glutamine. Oocytes were obtained from adult Xenopus laevis frogs as previously described (Tigyi et al., 1999).
(§1) RH7777 cells were transfected with the cDNA constructs encoding human Edg-2, Edg-4, or Edg-7 and then were subcloned into the pCDNA3 expression vector using the Cytofectene transfection reagent according to the manufacturers' protocol. Transfected cells were selected in DMEM containing 10% FBS and 1 mg/ml geneticin. Resistant cells were collected and subcloned by limiting dilution. The resulting clones were then screened using functional assays and RT-PCR analysis. Data are representative of three individual clones.
RH7777 cells were plated on polylysine-coated glass coverslips (Bellco, Vineland, N.J.) one day prior to transfection. The following day, cells were transfected overnight (16-18 hr) with 1 μg of plasmid DNA mixed with 6 μl of Cytofectene. The cells were then rinsed twice with DMEM and cultured in DMEM containing 10% FBS. The next day, the cells were rinsed with DMEM and serum was withdrawn for a minimum of 2 hr prior to monitoring intracellular Ca^2+.

human Edg-2 = target: T2, human Edg-2 (Homo sapiens, UniProt Q92633); test: Ca2+ responses (Fura-2) in RH7777 cells expressing Edg-2; settings: 250 nM LPA 18:1 mixed with 10 μM lipid
T2 construct: expressed in transfected cells
T2 sequence (Q92633 whole entry): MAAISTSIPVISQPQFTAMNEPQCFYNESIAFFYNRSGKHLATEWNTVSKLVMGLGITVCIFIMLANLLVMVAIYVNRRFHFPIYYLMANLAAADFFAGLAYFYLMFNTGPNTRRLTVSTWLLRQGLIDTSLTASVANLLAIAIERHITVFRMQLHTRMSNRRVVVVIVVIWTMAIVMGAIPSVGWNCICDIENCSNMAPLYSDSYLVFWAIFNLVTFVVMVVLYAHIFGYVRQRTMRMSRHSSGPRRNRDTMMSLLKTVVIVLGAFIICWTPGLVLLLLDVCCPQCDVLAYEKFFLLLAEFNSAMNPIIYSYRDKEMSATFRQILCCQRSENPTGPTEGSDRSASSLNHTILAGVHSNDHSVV
Description: as §1

PSP24 PLGFR = PSP24 PLGFR (Xenopus laevis, UniProt P79945); test: Xenopus oocyte assay: LPA-induced oscillatory chloride currents (two-electrode voltage clamp); settings: for inhibition of LPA-induced chloride currents: Xenopus oocytes, extracellular application
PSP24 PLGFR, sequence (P79945 whole entry): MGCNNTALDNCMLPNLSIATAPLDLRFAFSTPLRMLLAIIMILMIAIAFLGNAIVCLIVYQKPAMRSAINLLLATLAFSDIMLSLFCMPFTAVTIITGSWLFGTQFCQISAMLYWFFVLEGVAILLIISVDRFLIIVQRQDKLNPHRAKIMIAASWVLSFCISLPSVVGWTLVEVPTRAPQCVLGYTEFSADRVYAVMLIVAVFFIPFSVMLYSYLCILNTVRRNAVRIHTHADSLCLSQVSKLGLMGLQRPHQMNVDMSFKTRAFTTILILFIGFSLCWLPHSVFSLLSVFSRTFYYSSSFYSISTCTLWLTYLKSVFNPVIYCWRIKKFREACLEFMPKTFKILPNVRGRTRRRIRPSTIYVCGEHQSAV
Description: Xenopus oocytes which endogenously express PSP24 PLGFR were used to screen the newly designed and synthesized compounds for their LPA inhibitory activity.
(§2) Oocytes were obtained from xylazine-anesthetized adult Xenopus laevis frogs (Carolina Scientific, Burlington, N.C.) under aseptic conditions and prepared for experiment. […] Oocytes were kept in Barth's solution in an incubator between 17-20° C. and were used for 2-7 days after isolation.
Electrophysiological recordings were carried out using a standard two-electrode voltage-clamp amplifier holding the membrane potential at −60 mV (GeneClamp 500, Axon Instruments, Calif.). […] Membrane currents were recorded with a NIC-310 digital oscilloscope (Nicolet, Madison, Wis.). Applications were made at intervals of 15 mins (minimum) to allow for the appropriate washout and recovery from desensitization.
as §2
Electrophysiological recordings were carried out using a standard two-electrode voltage-clamp amplifier holding the membrane potential at −60 mV (GeneClamp 500, Axon Instruments, CA). […] Membrane currents were recorded with a NIC-310 digital oscilloscope (Nicolet, Madison, Wis.). Applications were made at intervals of 15 mins (minimum) to allow for the appropriate washout and recovery from desensitization.

HEY ovarian cancer cells [1] = test: Ca2+ responses in HEY ovarian cancer cells; settings: 100 nM LPA 18:1 mixed with 1 μM lipid
Text: Likewise, PA 8:0 inhibited the Ca^2+ response to 6% of control, whereas PA 18:1 had no effect. HEY express mRNA transcripts for Edg-1, -2, -5, -7 receptors (FIG. 34C).

human Edg-7 = target: T3, human Edg-7 (Homo sapiens, UniProt Q9UBY5); test: Ca2+ responses (Fura-2) in RH7777 cells expressing Edg-7; settings: 250 nM LPA 18:1 mixed with 500 nM lipid
T3 construct: Flag; expressed in transfected cells
T3 sequence (Q9UBY5 1-353): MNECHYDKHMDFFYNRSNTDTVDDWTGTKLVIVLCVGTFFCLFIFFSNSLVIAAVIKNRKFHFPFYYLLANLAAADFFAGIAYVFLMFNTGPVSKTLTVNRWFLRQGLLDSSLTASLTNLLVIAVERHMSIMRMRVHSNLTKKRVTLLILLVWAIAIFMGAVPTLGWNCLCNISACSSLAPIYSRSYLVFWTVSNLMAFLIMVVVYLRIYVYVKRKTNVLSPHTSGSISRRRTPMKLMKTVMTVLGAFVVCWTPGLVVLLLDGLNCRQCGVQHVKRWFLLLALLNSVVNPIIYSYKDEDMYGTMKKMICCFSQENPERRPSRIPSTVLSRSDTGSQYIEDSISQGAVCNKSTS
Description: as §1

NIH3T3 cells = test: LPA-elicited proliferation of NIH3T3 cells (cell counting); settings: 5 μM LPA 18:1 mixed with 10 μM lipid, 24 hr
Description: Proliferation of NIH3T3 cells was assessed by direct cell counting as previously described (Tigyi et al., 1999). NIH3T3 cells were plated in 24-well plates at a density of 10,000 cells/well, in DMEM containing 10% FBS. The following day, the cells were rinsed and serum starved in DMEM for 6 hr. Lipids were then added for 24 hr. Cell numbers were determined by counting in a Coulter counter (Coulter Electronics, Hialeah, Fla.).

[2] = tested on: DU-145 prostate cancer cell line; test: Cytotoxicity / growth inhibition (SRB), DU145; settings: read-out: IC50 ± SEM, DU145
Description: (§3) Cells were removed from stock flasks using trypsin, centrifuged, resuspended in fresh media, and plated at a density of approximately 2,000 cells/well in 96-well culture plates. Final drug concentrations ranged from 0.05 to either 10 or 50 μM. Control experiments with no drug added (negative control) and 5-fluorouracil added (positive control) were performed in parallel. Media was removed and replaced at 48 hours to minimize the effects of drug degradation during the course of the experiment. After 96 hours drug exposure, cells were fixed by the addition of cold 50% trichloroacetic acid (TCA) and incubation at 4° C. for 1 hour. Fixed cells were stained with sulforhodamine B (SRB), and cell number was determined by comparison of absorbance at 540 nm, as compared to a standard curve of cell number versus absorbance. Experiments were performed in duplicate.

HEY ovarian cancer cells [3] = test: LPA-induced HEY ovarian cancer cell migration (cell motility); settings: compound 1 μM against 0.1 μM LPA
Description: It is known that two LPA receptors, EDG-2 and EDG-7, are expressed in HEY ovarian cancer cells, so compounds 56, 56a, and 66 were evaluated for their ablity to inhibit LPA-induced cell motility (compound conc: 1 μM against 0.1 μM LPA conc:).
HEY ovarian cells were maintained in RPMI 1640 medium with 2 mM L-glutamine (GIBCO BRL) supplemented with 10% fetal bovine serum (FBS, Hyclone). All cells were synchronized to the Go/G1 stage by growing them to confluency for 2 days. The cells were replated and harvested for experiments when cells were about 50-60% confluent on the flask. After removal of the cells from the flask, they were exposed for 5 min to 0.53 mM EDTA in PBS at 37° C. EDTA was neutralized with equal volume of RPMI 1640 plus 2 mM L-glutamine and 10% FBS. Cells were centrifuged at 800 rpm for 10 min at room temperature. Harvested cells were washed twice with RPMI 1640 with 2 mM L-glutamine medium and resuspended in the concentration of 1×10^6 cells/ml, and then rested for 1 hr at 37° C.
A modified quantitative cell migration assay (Cat. # ECM500 from Chemicon, Temecula, Calif.) was used to test cell motility. The Chemicon chamber membrane was coated with fibronectin-containing pores of 8 microns in diameter. A 400 μl RPMI/2 mM L-glutamine containing either no inhibitors or inhibitors (1 μM) were pippetted into the lower chamber. About 5×10^4 cells in RPMI 1640/2 mM L-glutamine were added to the top chamber. The 24-well plates with inserts were incubated for 4 hours in a 5% CO2 incubator at 37° C. At the end of incubation, the chambers were removed to a fresh 24-well plate, and the cells on the inside chamber were removed by a swab several times and placed in the prepared Cell Stain Solution for 30 minutes at room temperature. At the end of incubation, Cell Stain Solution was removed from the wells. The chambers were washed 3 times with 1 mL PBS per well. After the final PBS wash, the chambers were examined to confirm proper cell morphology, and adherent cells were counted using an inverted microscope.

[4] = tested on: PC-3 prostate cancer cell line; test: Cytotoxicity / growth inhibition (SRB), PC-3; settings: 96 hours drug exposure, read-out: IC50 ± SEM, PC-3
Description: as §3

[5] = tested on: LNCaP prostate cancer cell line; test: Cytotoxicity / growth inhibition (SRB), LNCaP; settings: 96 hours drug exposure, read-out: IC50 ± SEM, LNCaP
Description: as §3

T1 sequence (Q9HBW0 whole entry): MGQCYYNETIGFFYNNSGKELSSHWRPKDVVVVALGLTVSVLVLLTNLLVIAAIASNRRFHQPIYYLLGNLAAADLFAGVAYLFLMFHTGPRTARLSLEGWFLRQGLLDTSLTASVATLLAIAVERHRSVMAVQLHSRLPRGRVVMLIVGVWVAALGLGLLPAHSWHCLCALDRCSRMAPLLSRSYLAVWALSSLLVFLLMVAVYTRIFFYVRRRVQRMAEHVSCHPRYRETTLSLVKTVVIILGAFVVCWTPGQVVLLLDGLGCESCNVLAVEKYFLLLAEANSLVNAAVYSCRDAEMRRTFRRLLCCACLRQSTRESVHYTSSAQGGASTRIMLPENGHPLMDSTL

Compound	Ca2+ responses, % of control (human Edg-4)	inhibition of LPA-induced chloride currents (PSP24 PLGFR)	effect on LPA-induced proliferation (NIH3T3 cells)	effect on LPA-elicited Ca2+ response (HEY ovarian cancer cells [1])	effect on LPA-elicited Ca2+ responses (human Edg-7)	IC50 [4] [µM]	IC50 ([2]; 96 hours drug exposure) [µM]	effect on LPA-induced cell motility (HEY ovarian cancer cells [3])	IC50 [5] [µM]	further results
Phosphatidic acid [PA 8:0]	162 % of control	effective at inhibiting the LPA-elicited responses	had no significant inhibition	–	–	–	–	–	–	Ca2+ response, % of control (human Edg-2): 19 % of control; LPA-elicited Ca2+ response, % of control (HEY ovarian cancer cells [1]): 6 % of control; inhibition of the Ca2+ responses (human Edg-7): 56%
CCCCCCCC(=O)OC[C@H](COP(=O)(O)OP(=O)(O)O)OC(=O)CCCCCCC [DGPP 18:1, diacylglycerol pyrophosphate]	–	–	Neither DGPP 18:1, nor long- and short-chain PA and DAG had an effect	had no effect	no longer inhibitors of Edg-7	–	–	–	–	inhibitory effect on LPA-elicited Ca2+ response (human Edg-2): no longer had an inhibitory effect
CCCCCCCCCCCCCCCCCCOCC(COP(=O)(O)O)OP(=O)(O)O (stereo not drawn) [Compound 66, 1,2-(3-Octadecyloxypropane)-bis(dihydrogen phosphate)]	–	inhibitors of LPA-induced chloride current	–	–	–	> 10	–	–	–	IC50 ([2]; Homo sapiens, DU-145, 96 hours drug exposure): > 10 µM; inhibition at 1 µM (HEY ovarian cancer cells [3]): ~70%; effect on LPA response after intracellular microinjection (PSP24 PLGFR; 5 μM microinjected inside the cell, then extracellular LPA (10 nM)): failed to inhibit the LPA response; reversibility of inhibition of LPA-induced chloride currents (PSP24 PLGFR; after washing the oocyte): reversible; effect on the LPA response at 5 μM (PSP24 PLGFR; compound at 5 μM): completely abolished the effect of LPA; IC50 ([5]; Homo sapiens, LNCaP): 3.1 ± 3.2 µM
CCCCCCCCCCCCCCNC(=O)C(COP(=O)(O)O)NC(C)=O (stereo not drawn) [Compound 56a, 2-(Acetylamino)-3-oxo-3-(tetradecylamino) propyl dihydrogen phosphate]	–	–	–	–	–	–	0.7 ± 0.1	potentiated the LPA-induced cell motility	30.3 ± 7.9	effect on LPA response when applied in combination with LPA (PSP24 PLGFR; applied in combination with LPA): enhanced the LPA response; response elicited by compound alone at 2 μM (PSP24 PLGFR; compound alone, 2 μM): did not elicit a response; response elicited by compound alone at 10 μM (PSP24 PLGFR; compound alone, 10 μM): able to elicit a response on its own
2-Amino-3-(nonylamino)-3-oxopropyl dihydrogen phosphate [Compound 55]	–	–	–	–	–	31.6 ± 9	24.9 ± 4.1	potentiated the LPA-induced cell motility	4.9 ± 2.6	inhibition of LPA-induced response (PSP24 PLGFR; compound at 1 μM against 2 nM LPA): 38%
Phosphatidic acid [PA 18:1]	137 % of control	–	–	had no effect	no longer inhibitors of Edg-7	–	–	–	–	decrease of the Ca2+ response (human Edg-2): 18%

Source: patent publication US6875757B2, “LPA receptor agonists and antagonists and methods of use” (University of Tennessee Research Foundation, priority 2000, dated 2005)
